In the supplement of paper PMC10307832:

Key:
Experiment in all cases: relative viability (nuclei count vs DMSO), 5 days (fraction); higher = more cells survive
A-427 = test system: A-427
Outline: (§1)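 Lung cancer cell lines were pin-tool dosed in 1536-well plates on the day after seeding, with either a lone drug or a fixed anchor-drug dose plus five library-drug doses (not always all listed) in √10 steps. Nuclei were counted on 4× images after 5 days. Relative viability is the ratio of treated-well to vehicle-well nuclei counts, with each value a median of duplicate plates.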

ABC-1 = test system: ABC-1
Outline: as §1

BEN = test system: BEN
Outline: as §1

CAL-12T = test system: CAL-12T
Outline: as §1

HARA = test system: HARA
Outline: as §1

LOU-NH91 = test system: LOU-NH91
Outline: as §1

NCI-H1651 = test system: NCI-H1651
Outline: as §1

NCI-H1666 = test system: NCI-H1666
Outline: as §1

NCI-H1734 = test system: NCI-H1734
Outline: as §1

NCI-H1944 = test system: NCI-H1944
Outline: as §1

NCI-H1975 = test system: NCI-H1975
Outline: as §1

NCI-H2085 = test system: NCI-H2085
Outline: as §1

NCI-H2126 = test system: NCI-H2126
Outline: as §1

NCI-H460 = test system: NCI-H460
Outline: as §1

NCI-H520 = test system: NCI-H520
Outline: as §1

NCI-H596 = test system: NCI-H596
Outline: as §1

NCI-H647 = test system: NCI-H647
Outline: as §1

NCI-H661 = test system: NCI-H661
Outline: as §1

NCI-H727 = test system: NCI-H727
Outline: as §1

NCI-H838 = test system: NCI-H838
Outline: as §1

RERF-LC-KJ = test system: RERF-LC-KJ
Outline: as §1

SMILES: CCNC(=O)c1noc(-c2cc(C(C)C)c(O)cc2O)c1-c1ccc(CN2CCOCC2)cc1 [Luminespib] + CS(=O)(=O)CCNCc1ccc(-c2ccc3ncnc(Nc4ccc(OCc5cccc(F)c5)c(Cl)c4)c3c2)o1 [Lapatinib] (partner 2 µM)
- relative viability (A-427; first compound 0.002 µM): 1.08
- relative viability (A-427; first compound 0.006325 µM): 1.02
- relative viability (A-427; first compound 0.02 µM): 0.771
- relative viability (A-427; first compound 0.06325 µM): 1.04
- relative viability (A-427; first compound 0.2 µM): 0.975
- relative viability (ABC-1; first compound 0.002 µM): 1.33
- relative viability (ABC-1; first compound 0.006325 µM): 0.964
- relative viability (ABC-1; first compound 0.02 µM): 0.945
- relative viability (ABC-1; first compound 0.06325 µM): 1.14
- relative viability (ABC-1; first compound 0.2 µM): 0.517
- relative viability (BEN; first compound 0.002 µM): 0.717
- relative viability (BEN; first compound 0.006325 µM): 0.536
- relative viability (BEN; first compound 0.02 µM): 0.363
- relative viability (BEN; first compound 0.06325 µM): 0.211
- relative viability (BEN; first compound 0.2 µM): 0.237
- relative viability (CAL-12T; first compound 0.002 µM): 0.596
- relative viability (CAL-12T; first compound 0.006325 µM): 0.644
- relative viability (CAL-12T; first compound 0.02 µM): 0.309
- relative viability (CAL-12T; first compound 0.06325 µM): 0.183
- relative viability (CAL-12T; first compound 0.2 µM): 0.158
- relative viability (HARA; first compound 0.002 µM): 0.704
- relative viability (HARA; first compound 0.006325 µM): 0.709
- relative viability (HARA; first compound 0.02 µM): 0.465
- relative viability (HARA; first compound 0.06325 µM): 0.335
- relative viability (HARA; first compound 0.2 µM): 0.259
- relative viability (LOU-NH91; first compound 0.002 µM): 0.791
- relative viability (LOU-NH91; first compound 0.006325 µM): 0.833
- relative viability (LOU-NH91; first compound 0.02 µM): 0.588
- relative viability (LOU-NH91; first compound 0.06325 µM): 0.338
- relative viability (LOU-NH91; first compound 0.2 µM): 0.342
- relative viability (NCI-H1651; first compound 0.002 µM): 0.902
- relative viability (NCI-H1651; first compound 0.006325 µM): 0.803
- relative viability (NCI-H1651; first compound 0.02 µM): 0.561
- relative viability (NCI-H1651; first compound 0.06325 µM): 0.193
- relative viability (NCI-H1651; first compound 0.2 µM): 0.161
- relative viability (NCI-H1666; first compound 0.002 µM): 0.717
- relative viability (NCI-H1666; first compound 0.006325 µM): 0.709
- relative viability (NCI-H1666; first compound 0.02 µM): 0.585
- relative viability (NCI-H1666; first compound 0.06325 µM): 0.718
- relative viability (NCI-H1666; first compound 0.2 µM): 0.533
- relative viability (NCI-H1734; first compound 0.002 µM): 1.08
- relative viability (NCI-H1734; first compound 0.006325 µM): 1
- relative viability (NCI-H1734; first compound 0.02 µM): 0.675
- relative viability (NCI-H1734; first compound 0.06325 µM): 0.123
- relative viability (NCI-H1734; first compound 0.2 µM): 0.132
- relative viability (NCI-H1944; first compound 0.002 µM): 0.869
- relative viability (NCI-H1944; first compound 0.006325 µM): 0.724
- relative viability (NCI-H1944; first compound 0.02 µM): 0.445
- relative viability (NCI-H1944; first compound 0.06325 µM): 0.41
- relative viability (NCI-H1944; first compound 0.2 µM): 0.407
- relative viability (NCI-H1975; first compound 0.002 µM): 0.951
- relative viability (NCI-H1975; first compound 0.006325 µM): 0.739
- relative viability (NCI-H1975; first compound 0.02 µM): 0.291
- relative viability (NCI-H1975; first compound 0.06325 µM): 0.126
- relative viability (NCI-H1975; first compound 0.2 µM): 0.113
- relative viability (NCI-H2085; first compound 0.002 µM): 0.854
- relative viability (NCI-H2085; first compound 0.006325 µM): 0.793
- relative viability (NCI-H2085; first compound 0.02 µM): 0.482
- relative viability (NCI-H2085; first compound 0.06325 µM): 0.373
- relative viability (NCI-H2085; first compound 0.2 µM): 0.284
- relative viability (NCI-H2126; first compound 0.002 µM): 0.798
- relative viability (NCI-H2126; first compound 0.006325 µM): 0.776
- relative viability (NCI-H2126; first compound 0.02 µM): 0.582
- relative viability (NCI-H2126; first compound 0.06325 µM): 0.647
- relative viability (NCI-H2126; first compound 0.2 µM): 0.526
- relative viability (NCI-H460; first compound 0.002 µM): 1.11
- relative viability (NCI-H460; first compound 0.006325 µM): 0.871
- relative viability (NCI-H460; first compound 0.02 µM): 0.0465
- relative viability (NCI-H460; first compound 0.06325 µM): 0.0095
- relative viability (NCI-H460; first compound 0.2 µM): 0.0127
- relative viability (NCI-H520; first compound 0.002 µM): 0.848
- relative viability (NCI-H520; first compound 0.006325 µM): 0.792
- relative viability (NCI-H520; first compound 0.02 µM): 0.353
- relative viability (NCI-H520; first compound 0.06325 µM): 0.11
- relative viability (NCI-H520; first compound 0.2 µM): 0.138
- relative viability (NCI-H596; first compound 0.002 µM): 1.18
- relative viability (NCI-H596; first compound 0.006325 µM): 0.99
- relative viability (NCI-H596; first compound 0.06325 µM): 0.933
- relative viability (NCI-H596; first compound 0.2 µM): 0.969
- relative viability (NCI-H647; first compound 0.002 µM): 1.2
- relative viability (NCI-H647; first compound 0.006325 µM): 1.16
- relative viability (NCI-H647; first compound 0.02 µM): 0.359
- relative viability (NCI-H647; first compound 0.06325 µM): 0.0578
- relative viability (NCI-H647; first compound 0.2 µM): 0.0724
- relative viability (NCI-H661; first compound 0.002 µM): 0.469
- relative viability (NCI-H661; first compound 0.006325 µM): 0.464
- relative viability (NCI-H661; first compound 0.02 µM): 0.35
- relative viability (NCI-H661; first compound 0.06325 µM): 0.324
- relative viability (NCI-H661; first compound 0.2 µM): 0.208
- relative viability (NCI-H727; first compound 0.002 µM): 0.82
- relative viability (NCI-H727; first compound 0.006325 µM): 0.768
- relative viability (NCI-H727; first compound 0.02 µM): 0.435
- relative viability (NCI-H727; first compound 0.06325 µM): 0.227
- relative viability (NCI-H727; first compound 0.2 µM): 0.192
- relative viability (NCI-H838; first compound 0.002 µM): 1.05
- relative viability (NCI-H838; first compound 0.006325 µM): 0.911
- relative viability (NCI-H838; first compound 0.02 µM): 0.328
- relative viability (NCI-H838; first compound 0.06325 µM): 0.103
- relative viability (NCI-H838; first compound 0.2 µM): 0.0976
- relative viability (RERF-LC-KJ; first compound 0.002 µM): 0.825
- relative viability (RERF-LC-KJ; first compound 0.006325 µM): 0.812
- relative viability (RERF-LC-KJ; first compound 0.02 µM): 0.621
- relative viability (RERF-LC-KJ; first compound 0.06325 µM): 0.726
- relative viability (RERF-LC-KJ; first compound 0.2 µM): 0.294
